Test results as given in ChEMBL document CHEMBL1201862, “PubChem BioAssay data set” (2004).
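Results reflect a 48-hour exposure of cells in 96-well plates to compound at five concentrations. GI50 = concentration required for 50% inhibition of growth.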 Active and inactive are the calls of the source. Cut-off read from the data, not from the text of the source: active = GI50 up to about 1.1 µM and inactive = higher.

Legend:
Assay in all cases: NCI-60 cell line screen, 48 h
KM12 = tested on: KM12
HOP-62 = tested on: HOP-62
UACC-257 = tested on: UACC-257
DU-145 = tested on: DU-145
SK-OV-3 = tested on: SK-OV-3
MOLT-4 = tested on: MOLT-4
Hs-578T = tested on: Hs-578T
HL-60 = tested on: HL-60
A498 = tested on: A498
MDA-MB-231 = tested on: MDA-MB-231
Malme-3M = tested on: Malme-3M
UO-31 = tested on: UO-31
OVCAR-4 = tested on: OVCAR-4
HCT-116 = tested on: HCT-116
EKVX = tested on: EKVX
NCI-H460 = tested on: NCI-H460
RPMI-8226 = tested on: RPMI-8226
HOP-92 = tested on: HOP-92
MDA-MB-435 = tested on: MDA-MB-435

| Compound | GI50 (KM12) | GI50 (HOP-62) | GI50 (UACC-257) | GI50 (DU-145) | GI50 (SK-OV-3) | GI50 (MOLT-4) | GI50 (Hs-578T) | GI50 (HL-60) | GI50 (A498) | GI50 (MDA-MB-231) | GI50 (Malme-3M) | GI50 (UO-31) | GI50 (OVCAR-4) | GI50 (HCT-116) | GI50 (EKVX) | GI50 (NCI-H460) | GI50 (RPMI-8226) | GI50 (HOP-92) | GI50 (MDA-MB-435) |
| --- | --- | --- | --- | --- | --- | --- | --- | --- | --- | --- | --- | --- | --- | --- | --- | --- | --- | --- | --- |
| O=c1[nH]c2ccc(O)cc2o1 | > 100 µM (inactive) | > 100 µM (inactive) | > 100 µM (inactive) | > 100 µM (inactive) | > 100 µM (inactive) | > 100 µM (inactive) | > 100 µM (inactive) | > 100 µM (inactive) | > 100 µM (inactive) | > 100 µM (inactive) | 0.601 µM (active) | > 100 µM (inactive) | > 100 µM (inactive) | > 100 µM (inactive) | > 100 µM (inactive) | > 100 µM (inactive) |  |  |  |
| O=C(NC(Cc1ccccc1)P(=O)(O)c1ccccc1)OCc1ccccc1 (stereo not drawn) | > 100 µM (inactive) | > 100 µM (inactive) | > 100 µM (inactive) | > 100 µM (inactive) | > 100 µM (inactive) | > 100 µM (inactive) | > 100 µM (inactive) | > 100 µM (inactive) |  |  | > 100 µM (inactive) | > 100 µM (inactive) | > 100 µM (inactive) | > 100 µM (inactive) | > 100 µM (inactive) | > 100 µM (inactive) | > 100 µM (inactive) | > 100 µM (inactive) | > 100 µM (inactive) |
| COc1cc([C@@H]2c3cc4c(cc3[C@@H](NCc3cccc(F)c3)C3COC(=O)[C@@H]32)OCO4)cc(OC)c1O (stereo partly drawn) | 7.01 µM (inactive) | 1.51 µM (inactive) | 10.8 µM (inactive) |  | 4.19 µM (inactive) | 0.364 µM (active) |  | 1.19 µM (inactive) | 2.68 µM (inactive) |  | 4.69 µM (inactive) | 5.57 µM (inactive) | 30.6 µM (inactive) | 4.5 µM (inactive) | 12.4 µM (inactive) | 0.37 µM (active) | 2.29 µM (inactive) | 7.53 µM (inactive) |  |
| COC(=O)C([C@H]1CC[C@H](OCc2ccccc2)[C@@]1(O)COCc1ccccc1)C(C)(O)CCc1ccccc1 (stereo partly drawn) | 3.32 µM (inactive) | 15.2 µM (inactive) | 13.8 µM (inactive) | 24.2 µM (inactive) | 27.1 µM (inactive) | 3.63 µM (inactive) |  |  | 15 µM (inactive) | 12 µM (inactive) | 11.5 µM (inactive) | 10.7 µM (inactive) | 17.1 µM (inactive) | 10.7 µM (inactive) | 8.57 µM (inactive) |  | 9.89 µM (inactive) |  | 14.4 µM (inactive) |
| CC(C)=NNc1cnnc2ccc([N+](=O)[O-])cc12 | > 100 µM (inactive) |  | > 100 µM (inactive) | > 100 µM (inactive) | > 100 µM (inactive) | 37.2 µM (inactive) | > 100 µM (inactive) | 16.3 µM (inactive) |  | 59.7 µM (inactive) | 63.8 µM (inactive) | 35.2 µM (inactive) |  | 59.6 µM (inactive) | > 100 µM (inactive) | 33.3 µM (inactive) | 31.6 µM (inactive) | > 100 µM (inactive) | 67.8 µM (inactive) |
| N#CC(C#N)=C/C=C(\Sc1c(Cl)c(Cl)nc(Cl)c1Cl)c1ccc(Cl)cc1 | 19.1 µM (inactive) | 29.2 µM (inactive) | 14.8 µM (inactive) | 21.1 µM (inactive) | 24.4 µM (inactive) | 4.56 µM (inactive) | 15.7 µM (inactive) | 10.8 µM (inactive) |  | 21.6 µM (inactive) | 23 µM (inactive) | 29.8 µM (inactive) | 29.9 µM (inactive) | 10.2 µM (inactive) | 32.4 µM (inactive) | 26.4 µM (inactive) | 4.1 µM (inactive) | 26.5 µM (inactive) | 5.4 µM (inactive) |
| N#CCc1cccc(CC#N)c1Br | > 100 µM (inactive) | > 100 µM (inactive) | > 100 µM (inactive) |  | > 100 µM (inactive) | > 100 µM (inactive) |  | > 100 µM (inactive) |  |  | > 100 µM (inactive) | > 100 µM (inactive) | > 100 µM (inactive) | > 100 µM (inactive) | > 100 µM (inactive) | > 100 µM (inactive) | > 100 µM (inactive) | 45.2 µM (inactive) |  |
| C[C@H](CCC(=O)O)[C@H]1CC[C@H]2[C@@H]3[C@@H](O)C[C@@H]4C[C@H](O)CC[C@]4(C)[C@H]3CC[C@]12C [URSODIOL] | > 100 µM (inactive) | > 100 µM (inactive) | > 100 µM (inactive) | > 100 µM (inactive) |  | 47.4 µM (inactive) |  | > 100 µM (inactive) | > 100 µM (inactive) | > 100 µM (inactive) | > 100 µM (inactive) | 70 µM (inactive) | > 100 µM (inactive) | > 100 µM (inactive) | > 100 µM (inactive) | > 100 µM (inactive) | 97.9 µM (inactive) | > 100 µM (inactive) | > 100 µM (inactive) |
| O=c1cc(/N=N/c2ccc(O)cc2)[nH]c(=O)[nH]1 | 16.9 µM (inactive) | 62.8 µM (inactive) | 73.1 µM (inactive) | > 100 µM (inactive) | > 100 µM (inactive) | > 100 µM (inactive) |  | > 100 µM (inactive) | > 100 µM (inactive) | > 100 µM (inactive) | 28.8 µM (inactive) | > 100 µM (inactive) | > 100 µM (inactive) | > 100 µM (inactive) | > 100 µM (inactive) | > 100 µM (inactive) | > 100 µM (inactive) | 96.6 µM (inactive) | > 100 µM (inactive) |
| O=C(O)CCC(NC(=O)c1ccccc1)C(=O)O (stereo not drawn) | > 100 µM (inactive) | > 100 µM (inactive) | > 100 µM (inactive) |  | > 100 µM (inactive) | > 100 µM (inactive) |  |  | > 100 µM (inactive) |  | > 100 µM (inactive) | > 100 µM (inactive) | > 100 µM (inactive) | 58.7 µM (inactive) | > 100 µM (inactive) | > 100 µM (inactive) | > 100 µM (inactive) | > 100 µM (inactive) |  |
| O=C(/C=C/c1cccc([N+](=O)[O-])c1)N1CCN(CCOC(c2ccccc2)c2ccccc2)CC1 | 26.9 µM (inactive) | > 100 µM (inactive) | 32.4 µM (inactive) | 47.3 µM (inactive) | > 100 µM (inactive) | 12.4 µM (inactive) |  |  | 50.7 µM (inactive) |  | 31.8 µM (inactive) | 33.1 µM (inactive) | 29.9 µM (inactive) | 18.6 µM (inactive) | > 100 µM (inactive) | 25.9 µM (inactive) | 12.3 µM (inactive) | 16.6 µM (inactive) | 33.4 µM (inactive) |
| O=C1CNc2cc(N3CCN(c4cccc(C(F)(F)F)c4)CC3)ccc2N1 | 32.9 µM (inactive) | > 100 µM (inactive) | 37 µM (inactive) | > 100 µM (inactive) | > 100 µM (inactive) | 28.7 µM (inactive) | 42.1 µM (inactive) | 19.9 µM (inactive) |  | > 100 µM (inactive) | 14.2 µM (inactive) | 24.7 µM (inactive) | 21.4 µM (inactive) | 35.7 µM (inactive) | 91 µM (inactive) | 53 µM (inactive) | 31.7 µM (inactive) | > 100 µM (inactive) | 95.5 µM (inactive) |
| Cc1cc(C2CC(O)C(CO)O2)c(F)cc1F (stereo not drawn) | > 100 µM (inactive) | > 100 µM (inactive) | > 100 µM (inactive) | > 100 µM (inactive) | > 100 µM (inactive) | > 100 µM (inactive) |  | 91.6 µM (inactive) | > 100 µM (inactive) | > 100 µM (inactive) | > 100 µM (inactive) | > 100 µM (inactive) | > 100 µM (inactive) | > 100 µM (inactive) | > 100 µM (inactive) | > 100 µM (inactive) |  | > 100 µM (inactive) | > 100 µM (inactive) |
| O=C1/C(=C/c2ccccc2)CCc2ccc(Cl)nc21 | 2.59 µM (inactive) | 19.7 µM (inactive) | 5.4 µM (inactive) | 10 µM (inactive) | 31.6 µM (inactive) | 2.28 µM (inactive) |  | 0.0168 µM (active) | 18.3 µM (inactive) | 15.2 µM (inactive) | 11 µM (inactive) | 7.64 µM (inactive) | 22.5 µM (inactive) | 2.55 µM (inactive) | 17.9 µM (inactive) | 18.2 µM (inactive) | 2.84 µM (inactive) | 15.8 µM (inactive) | 6.5 µM (inactive) |
| COC1CCON1C(=O)c1ccccc1 (stereo not drawn) |  | > 10 µM (inactive) | > 10 µM (inactive) | > 10 µM (inactive) | > 10 µM (inactive) | > 10 µM (inactive) | > 10 µM (inactive) | > 10 µM (inactive) |  | > 10 µM (inactive) | > 10 µM (inactive) | > 10 µM (inactive) | > 10 µM (inactive) | > 10 µM (inactive) | > 10 µM (inactive) | > 10 µM (inactive) | > 10 µM (inactive) |  | > 10 µM (inactive) |
| O=[N+]([O-])c1ccc(/C=C(/c2ccc([N+](=O)[O-])o2)S(=O)(=O)c2ccccc2)o1 | 17.7 µM (inactive) | 17.8 µM (inactive) | 1.84 µM (inactive) | 14.8 µM (inactive) | 29.4 µM (inactive) |  | 15.4 µM (inactive) | 2.75 µM (inactive) |  | 3.19 µM (inactive) | 2.45 µM (inactive) | 4.34 µM (inactive) | 4.22 µM (inactive) | 1.71 µM (inactive) | 0.0885 µM (active) | 21.2 µM (inactive) | 0.128 µM (active) | 12 µM (inactive) | 15.2 µM (inactive) |
| CCc1n[nH]c(=O)n1/N=C(\C)c1ccc([N+](=O)[O-])cc1 | > 100 µM (inactive) | > 100 µM (inactive) | > 100 µM (inactive) | 27.5 µM (inactive) |  | > 100 µM (inactive) | 92.3 µM (inactive) | > 100 µM (inactive) |  | 19.7 µM (inactive) |  | > 100 µM (inactive) | > 100 µM (inactive) | > 100 µM (inactive) | > 100 µM (inactive) | 46.2 µM (inactive) | > 100 µM (inactive) | > 100 µM (inactive) | 59.7 µM (inactive) |
